Test results published in patent US11827616B2, “Heterocyclic compounds as pesticides” (Discovery Purchaser Corporation, priority 2018, dated 2023).
Read-outs that look alike come from different tables or passages of the source.

What was measured:
Format in all cases: in vivo
Ctenocephalides felis [1] = assay: Ctenocephalides felis in vitro contact test with adult cat fleas; conditions: application rate 5 μg/cm^2 (=500 g/ha); after 48 h
Protocol: Ctenocephalides felis—In Vitro Contact Tests with Adult Cat Fleas
(§1) For the coating of the test tubes, 9 mg of active compound are first dissolved in 1 ml of acetone p.a. and then diluted to the desired concentration with acetone p.a. 250 μl of the solution are distributed homogeneously on the inner walls and the base of a 25 ml glass tube by turning and rocking on an orbital shaker (rocking rotation at 30 rpm for 2 h). With 900 ppm of active compound solution and internal surface area 44.7 cm^2, given homogeneous distribution, an area-based dose of 5 μg/cm^2 is achieved.
After the solvent has evaporated off, the tubes are populated with 5-10 adult cat fleas (Ctenocephalides felis), sealed with a perforated plastic lid and incubated in a horizontal position at room temperature and ambient humidity. After 48 h, efficacy is determined. To this end, the tubes are stood upright and the fleas are knocked to the base of the tube. Fleas which remain motionless at the base or move in an uncoordinated manner are considered to be dead or moribund.
100% efficacy means that all the fleas were dead or moribund. 0% efficacy means that no fleas were harmed.

Tetranychus urticae = Tetranychus urticae spray test, OP-resistant; conditions: after 6 days
Protocol: Tetranychus urticae—Spray Test, OP-Resistant
Solvent: 78.0 Parts by Weight of Acetone • • 1.5 parts by weight of dimethylformamide
(§2) Emulsifier: alkylaryl polyglycol ether
(§3) To produce a suitable active compound formulation, 1 part by weight of active compound is dissolved with the specified parts by weight of solvent and made up to the desired concentration with water containing an emulsifier concentration of 1000 ppm. To produce further test concentrations, the formulation is diluted with emulsifier-containing water.
Discs of bean leaves (Phaseolus vulgaris) infested with all stages of the greenhouse red spider mite (Tetranychus urticae) are sprayed with an active compound formulation of the desired concentration.
After 6 days, the efficacy in % is determined. 100% means that all the spider mites have been killed; 0% means that no spider mites have been killed.

Lucilia cuprina = Lucilia cuprina test; conditions: application rate 100 ppm; L1 larvae; after 2 days
Protocol: (§4) Solvent: dimethyl sulfoxide
To produce a suitable active compound formulation, 10 mg of active compound are mixed with 0.5 ml of dimethyl sulfoxide, and the concentrate is diluted with water to the desired concentration.
About 20 L1 larvae of the Australian sheep blowfly (Lucilia cuprina) are transferred into a test vessel containing minced horsemeat and the active compound formulation of the desired concentration.
After 2 days, the kill in % is determined. 100% means that all the larvae have been killed; 0% means that no larvae have been killed.

Boophilus microplus = Boophilus microplus injection test; conditions: for pest or weed control at 0.02 mg: Rhipicephalus microplus, 168 h
Protocol: Boophilus microplus—Injection Test
as §4
To produce a suitable active compound formulation, 10 mg of active compound are mixed with 0.5 ml of solvent and the concentrate is diluted to the desired concentration with solvent.
1 μl of the active compound solution is injected into the abdomen of 5 engorged adult female cattle ticks (Boophilus microplus). The animals are transferred into dishes and kept in a climate-controlled room.
Efficacy is assessed after 7 days by laying of fertile eggs. Eggs which are not visibly fertile are stored in a climate-controlled cabinet until the larvae hatch after about 42 days. An efficacy of 100% means that none of the ticks has laid any fertile eggs; 0% means that all the eggs are fertile.

Rhipicephalus sanguineus = Rhipicephalus sanguineus in vitro contact test with adult brown dog ticks; conditions: application rate 5 μg/cm^2 (=500 g/ha); after 48 h
Protocol: Rhipicephalus sanguineus—In Vitro Contact Tests with Adult Brown Dog Ticks
as §1
After the solvent has evaporated off, the tubes are populated with 5-10 adult dog ticks (Rhipicephalus sanguineus), sealed with a perforated plastic lid and incubated in a horizontal position in the dark at room temperature and ambient humidity. After 48 h, efficacy is determined. To this end, the ticks are knocked to the base of the tube and incubated on a hotplate at 45-50° C. for not more than 5 min. Ticks which remain motionless on the base or move in such an uncoordinated manner that they are unable to deliberately avoid the heat by climbing upwards are considered to be dead or moribund.
An efficacy of 100% means that all the ticks were dead or moribund. 0% efficacy means that none of the ticks were harmed.

Phaedon cochleariae = Phaedon cochleariae spray test; conditions: for efficacy: after 7 days
Protocol: Phaedon cochleariae—Spray Test
(§5) Solvent: 78.0 parts by weight of acetone • • 1.5 parts by weight of dimethylformamide
as §2, §3
Discs of Chinese cabbage leaves (Brassica pekinensis) are sprayed with an active compound formulation of the desired concentration and, after drying, populated with larvae of the mustard beetle (Phaedon cochleariae).
After 7 days, the efficacy in % is determined. 100% means that all the beetle larvae have been killed; 0% means that no beetle larvae have been killed.

Spodoptera frugiperda = Spodoptera frugiperda spray test; conditions: for efficacy: application rate 500 g/ha, after 7 days
Protocol: Spodoptera frugiperda—Spray Test
as §5, §2, §3
Leaf discs of maize (Zea mays) are sprayed with an active compound formulation of the desired concentration and, after drying, populated with caterpillars of the fall armyworm (Spodoptera frugiperda).
After 7 days, the efficacy in % is determined. 100% means that all the caterpillars have been killed; 0% means that no caterpillar has been killed.

[2] = system: Anopheles gambiae strain RSPH (homozygot kdr); assay: Anopheles test (ANPHGB surface treatment); conditions: read-out: efficacy (mortality in %)
Protocol: Anopheles Test (ANPHGB Surface Treatment)
Solvent: acetone+2000 ppm rapeseed oil methyl ester (RME)
To produce an appropriate active compound formulation, the active compound is dissolved in the solvent (2 mg/ml). The active compound formulation is pipetted onto a glazed tile and, after it has dried off, adult mosquitoes of the species Anopheles gambiae strain RSPH (homozygot kdr) are placed onto the treated tile. The exposure time is 30 minutes.
24 hours after contact with the treated surface, mortality in % is determined. 100% means that all mosquitoes have been killed; 0% means that none of the mosquitoes have been killed.

Ctenocephalides felis [3] = assay: Ctenocephalides felis oral test; conditions: application rate 100 ppm in citrated cattle blood; after 2 days
Protocol: Ctenocephalides felis—Oral Test
as §4
To produce a suitable active compound formulation, 10 mg of active compound are mixed with 0.5 ml of dimethyl sulfoxide. Dilution with citrated cattle blood gives the desired concentration.
About 20 unfed adult cat fleas (Ctenocephalides felis) are placed into a chamber which is closed at the top and bottom with gauze. A metal cylinder whose bottom end is closed with parafilm is placed onto the chamber. The cylinder contains the blood/active compound formulation, which can be imbibed by the fleas through the parafilm membrane.
After 2 days, the kill in % is determined. 100% means that all of the fleas have been killed; 0% means that none of the fleas have been killed.

[4] = application rate 20 μg/animal, after 7 days

SMILES | efficacy (fleas dead or moribund) (Ctenocephalides felis [1]) | efficacy (Tetranychus urticae; application rate 500 g/ha) | efficacy (kill in %) (Lucilia cuprina) | efficacy (laying of fertile eggs) (Boophilus microplus; [4]) | efficacy (ticks dead or moribund) (Rhipicephalus sanguineus) | efficacy (Phaedon cochleariae; application rate 500 g/ha) | efficacy (Spodoptera frugiperda) | mortality at 20 mg/m2 ([2]; application rate 20 mg/m^2, exposure 30 minutes, 24 hours after contact) | mortality at 100 mg/m2 ([2]; application rate 100 mg/m^2, exposure 30 minutes, 24 hours after contact) | pest or weed control at 0.02 mg (Boophilus microplus; application rate 20 μg/animal, after 7 days, read-out: efficacy (laying of fertile eggs)) | efficacy (kill in %) (Ctenocephalides felis [3]) | mortality at 20 mg/m2 [2] | pest or weed control at 0.02 mg (Boophilus microplus; read-out: efficacy (laying of fertile eggs), application rate 20 μg/animal, after 7 days) | pest or weed control at 500 g/ha (Phaedon cochleariae; Phaedon cochleariae, 168 h, read-out: efficacy) | pest or weed control at 500 g/ha (Spodoptera frugiperda; Spodoptera frugiperda, 168 h, read-out: efficacy) | efficacy (Tetranychus urticae; application rate 100 g/ha) | efficacy (Phaedon cochleariae; application rate 100 g/ha)
CON(C)CCOc1ccc(COc2cccc3c(Cl)c(Cl)ccc23)cn1 [Example 1] | 100% | 100% | 100% | 100% | 100% | 100% | 100% | – | – | – | – | – | – | – | – | – | –
CON(C)CCOc1ccc(COc2cccc(-c3ccccc3)c2)cn1 [Example 13] | 100% | 90% | – | 100% | 100% | 100% | – | – | – | – | – | – | – | – | – | – | –
CON(C)CCOc1ccc(COc2cccc3c(Cl)c(Cl)ccc23)nc1F [Example 17, 2-[(6-{[(5,6-dichloro-1-naphthyl)oxy]methyl}-2-fluoropyridin-3-yl)oxy]-N-methoxy-N-methylethanamine] | – | – | – | – | – | – | – | 80 to 100% | 80 to 100% | 100% | – | – | – | – | – | – | –
CON(C)CCOc1cnc(COc2ccc(Br)c3ccccc23)c(F)c1 [Example 21] | 100% | 90% | 100% | 100% | 100% | 100% | 100% | – | – | – | 80% | – | – | – | – | – | –
CN(CC#N)CCOc1cnc(COc2ccc(Cl)c3ccccc23)c(F)c1 [Example 27] | – | 90% | – | 100% | 100% | 100% | 100% | – | – | – | – | – | – | – | – | – | –
CN(CC#N)CCOc1cnc(COc2ccc3oc4ccccc4c3c2)c(F)c1 [Example 29, {[2-({6-[(dibenzo[b,d]furan-2-yloxy)methyl]-5-fluoropyridin-3-yl}oxy)ethyl](methyl)amino}acetonitrile] | – | – | 100% | – | – | – | – | – | – | – | 100% | 80 to 100% | 100% | 100% | 100% | – | –
CC(C)N(C)CCOc1cnc(COc2cccc3c(Cl)c(Cl)ccc23)c(F)c1 [Example 44] | 100% | – | – | 100% | – | 100% | 100% | – | – | – | – | – | – | – | – | 90% | –
CON(C)CCOc1cnc(COc2ccc(F)c(-c3cccc(Cl)c3)c2)c(F)c1 [Example 49] | 100% | 100% | 100% | 100% | 100% | 100% | 100% | – | – | – | – | – | – | – | – | – | –
CON(C)CCOc1cnc(COc2ccc(Cl)c(-c3cccc(Cl)c3)c2)c(F)c1 [Example 56] | 100% | 100% | 100% | 100% | 100% | 100% | 100% | – | – | – | – | – | – | – | – | – | –
CON(C)CCOc1cnc(COc2ccc(Cl)c(-c3cccc(F)c3)c2)c(F)c1 [Example 61] | 100% | 90% | 100% | 100% | 100% | – | 100% | – | – | – | 90% | – | – | – | – | – | –
CON(C)CCOc1cnc(COc2ccc(Cl)c(-c3ccccc3)c2)c(F)c1 [Example 63] | 100% | 100% | 100% | 100% | 100% | – | 100% | – | – | – | 95% | – | – | – | – | – | 100%
CON(C)CCOc1ccc(COc2cccc(-c3cccc(OC(F)(F)F)c3)c2)nc1 [Example 64] | 100% | 90% | – | 100% | 100% | 100% | 83% | – | – | – | – | – | – | – | – | – | –
CON(C)CCOc1ccc(COc2ccc(F)c(-c3cccc(Cl)c3)c2)nc1 [Example 65] | 100% | 100% | 90% | 100% | 100% | – | 100% | – | – | – | – | – | – | – | – | – | –
CON(C)CCOc1cnc(COc2cccc(-c3ccccc3)c2)c(F)c1 [Example 70] | 100% | 90% | 100% | 100% | 100% | 100% | – | – | – | – | – | – | – | – | – | – | –
CON(C)CCOc1cnc(COc2ccc(Cl)c(OC(F)(F)F)c2)c(F)c1 [Example 72] | 100% | 100% | 100% | 100% | 100% | – | 83% | – | – | – | 95% | – | – | – | – | – | –
CON(C)CCOc1cnc(COc2ccc(Cl)c(I)c2)c(F)c1 [Example 76] | 100% | – | – | 100% | 100% | 100% | – | – | – | – | – | – | – | – | – | 90% | –
